Literature values, collected in patent publication US20200197364A1, “DIHYDROMYRICETIN NANOPARTICLE FORMULATIONS” (priority 2017, published 2020).

What was measured:
[1] = in vivo
[2] = through intestinal mucosa
[3] = data collected by EPA

Oral bioavailability [1]: less than 5%
Permeability [2]: low
Log P [3]: approximately 1.31
SMILES: O=C1c2c(O)cc(O)cc2O[C@H](c2cc(O)c(O)c(O)c2)[C@H]1O [DHM, Dihydromyricetin]
